Data taken from patent US20240034729A9, “HETEROCYCLIC COMPOUND, INTERMEDIATE, PREPARATION METHOD THEREFOR AND APPLICATION THEREOF” (WUHAN LL SCIENCE AND TECHNOLOGY DEVELOPMENT CO., LTD., priority 2018, published 2024).
Where two headings read alike, the source gives them in different places.

What was measured:
[1] = biological target: hP2X3 (human purinergic P2X receptor subtype 3) (Homo sapiens (Human), UniProt P56373); experiment: FLIPR calcium assay, hP2X3 expressed in HEK293 cells; assay type: cell-based; conditions: read-out: P2X3 IC50
Sequence of hP2X3 (human purinergic P2X receptor subtype 3) (P56373 whole entry): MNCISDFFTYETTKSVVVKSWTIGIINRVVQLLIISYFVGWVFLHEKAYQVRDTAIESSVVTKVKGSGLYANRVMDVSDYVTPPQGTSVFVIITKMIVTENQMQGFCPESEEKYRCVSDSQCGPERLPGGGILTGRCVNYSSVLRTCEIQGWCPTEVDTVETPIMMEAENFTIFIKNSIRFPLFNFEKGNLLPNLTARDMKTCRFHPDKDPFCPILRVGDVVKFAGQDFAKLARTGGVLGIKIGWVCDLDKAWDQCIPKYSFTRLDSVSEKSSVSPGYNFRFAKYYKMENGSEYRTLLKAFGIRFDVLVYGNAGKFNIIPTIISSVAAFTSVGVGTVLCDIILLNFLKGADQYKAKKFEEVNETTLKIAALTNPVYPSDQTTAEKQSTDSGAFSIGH

[2] = biological target: hP2X2/3 (heterodimeric receptors formed by human purinergic P2X receptors subtype 2 and subtype 3) (Homo sapiens (Human), UniProt P56373+Q9UBL9); experiment: FLIPR calcium assay, hP2X2/3 expressed in HEK293 cells (P2X2/3 receptor selectivity); assay type: cell-based; conditions: for IC50: HEK293 cells expressing hP2X2/3, agonist BZ-ATP 5 μM, unit inferred
Sequence of hP2X2/3 (heterodimeric receptors formed by human purinergic P2X receptors subtype 2 and subtype 3) (P56373 whole entry): as above
Sequence of hP2X2/3 (heterodimeric receptors formed by human purinergic P2X receptors subtype 2 and subtype 3) (Q9UBL9 whole entry): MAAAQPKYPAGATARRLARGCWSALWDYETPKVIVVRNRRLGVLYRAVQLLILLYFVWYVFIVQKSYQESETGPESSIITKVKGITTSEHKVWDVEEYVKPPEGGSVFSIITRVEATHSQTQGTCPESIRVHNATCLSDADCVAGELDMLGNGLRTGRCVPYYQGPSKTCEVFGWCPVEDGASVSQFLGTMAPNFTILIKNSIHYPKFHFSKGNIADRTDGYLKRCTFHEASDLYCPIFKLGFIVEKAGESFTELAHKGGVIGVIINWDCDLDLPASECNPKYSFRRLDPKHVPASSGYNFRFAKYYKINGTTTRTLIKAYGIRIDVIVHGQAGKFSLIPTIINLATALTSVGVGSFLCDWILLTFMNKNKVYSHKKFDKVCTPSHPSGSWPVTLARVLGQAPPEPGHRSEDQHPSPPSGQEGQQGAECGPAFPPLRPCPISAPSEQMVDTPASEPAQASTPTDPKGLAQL

[3] = test system: Male Dunkin Hartley guinea pigs; experiment: Citric acid only cough model; assay type: in vivo, guinea pig; set-up: Mean cough latency: unit not given beside the values; conditions: for Number of coughs and cough latency (in words): compared with the blank vehicle or the condition before administration; for inhibition in vivo at 30 mg/kg: Cavia porcellus; for Mean number of coughs: 17.5% citric acid
Procedure: Male Dunkin Hartley guinea pigs (300-350 g) were placed in an animal atomization box, and then the door of the atomization box was closed while the ultrasonic atomizer (Guangdong Yuehua) was turned on. 17.5% citric acid gas was introduced into the atomization box at a maximum atomization rate (about 2 mL/min) for 20 s, and coughs of the animals within 10 min were continuously observed from the time of the start of atomization. During the 10-min observation, coughs of the animals were counted manually, and the number of coughs were judged according to cough postures of the guinea pigs, such as abdominal twitching, mouth opening, and head inclining downward abruptly. The number of coughs during the first 5 min and that during 10 min were recorded, and the cough latency of the guinea pigs, namely the time from the initiation of citric acid induction to the appearance of the first cough, was also recorded.

[4] = In vitro cytotoxicity assay, CCK-8 method; assay type: cell-based; conditions: human, HepG2 cells
Procedure: In vitro cytotoxicity assay for the compounds disclosed herein was performed in HepG2 cells using the CCK-8 method. HepG2 cells (Beina Bio) in the logarithmic growth phase were collected, the concentration of cell suspension was adjusted, and then the cells were plated on a 96-well cell culture plate at 50,000 cells/well. The cells were then incubated overnight in a cell incubator of 5% […] at 37° C., and after 80-90% cell confluence was achieved, test compounds or vehicle (DMSO) at various concentration gradients were added after medium change. The plate was incubated in a cell incubator of 5% […] at 37° C. for 48 h. After the treatment, the medium in the plate was discarded. The plate was washed twice with PBS, added with CCK-8 working solution (Beyotime) at 100 μL per well, and then incubated at 37° C. for 1.5 h away from light. Absorbance at OD450nm was measured for each well on a microplate reader, and CC50 value of each compound was analyzed and calculated.

[5] = test system: Male SD rats; experiment: Two-bottle dysgeusia test (quinine water vs normal water); assay type: in vivo, rat; conditions: for Ratio of quinine/water intake (in words): compared with the blank vehicle; for Quinine/tap water* 100%: rats, single intraperitoneal injection
Procedure: All drinking water bottles were removed out 20 h before the start of the formal experiment, and all the animals were deprived of water until the start of the experiment. In the experiment, all the animals were randomly grouped and then subjected to a single intraperitoneal injection of a test compound or a vehicle before water was resupplied. The administration time was determined according to the Tmax of the test compound. Then the animals were placed in separate cages, and two bottles of drinking water (one bottle of normal drinking water and one bottle of 0.3 mM quinine water) were provided.

[6] = In vitro metabolic stability, human liver microsome; assay type: in vitro ADME; conditions: liver microsomes, 1 mg/mL liver microsome protein, 37° C., NA = essentially not metabolized, read-out: T1/2 in human liver microsome
Procedure: (§1) The in vitro metabolic stability of the compounds disclosed herein was determined through incubation of liver microsomes of various species. […] At each time point, 100 μL of the reaction mixture was added into a centrifuge tube containing 400 μL of internal standard working solution (containing a 200 ng/mL solution of dexamethasone, diclofenac, tolbutamide and labetalol in acetonitrile) precooled at 0° C. so as to terminate the reaction, and the mixture was then centrifuged at 10,000 g for 10 min at 4° C. The supernatant was collected for LC-MS assay so as to obtain the values of in vitro metabolic half-life of the test compounds in liver microsomes of various species.

[7] = In vitro metabolic stability, rat liver microsome; assay type: in vitro ADME; conditions: liver microsomes, 1 mg/mL liver microsome protein, 37° C., NA = essentially not metabolized, read-out: T1/2 in rat liver microsome
Procedure: as §1

[8] = In vitro metabolic stability, guinea pig liver microsome; assay type: in vitro ADME; conditions: liver microsomes, 1 mg/mL liver microsome protein, 37° C., NA = essentially not metabolized, read-out: T1/2 in guinea pig liver microsome
Procedure: The in vitro metabolic stability of the compounds disclosed herein was determined through incubation of liver microsomes of various species. A proper amount of test compound was added into a liver microsome reaction system (1 mg/mL liver microsome protein, 25 U/mL glucose-6 phosphate dehydrogenase, 1 mM NADP, 6 mM D-glucose 6-phosphate and 5 mM MgCl2), and then the mixture was incubated in a water bath kettle at 37° C. to start the reaction. At each time point, 100 μL of the reaction mixture was added into a centrifuge tube containing 400 μL of internal standard working solution (containing a 200 ng/mL solution of dexamethasone, diclofenac, tolbutamide and labetalol in acetonitrile) precooled at 0° C. so as to terminate the reaction, and the mixture was then centrifuged at 10,000 g for 10 min at 4° C. The supernatant was collected for LC-MS assay so as to obtain the values of in vitro metabolic half-life of the test compounds in liver microsomes of various species.

[9] = 30 mg/kg, read-out: Cough inhibition rate Vs Baseline (%)
[10] = 30 mg/kg, read-out: Cough inhibition rate Vs Vehicle (%)
[11] = Table 8, 20 mg/kg, water intake within 15 min, 0.3 mM quinine
[12] = before administration (baseline of the group)

For `CC(=O)N1CCO[C@@H](Cc2c(-c3c(F)cc(-c4nnc[nH]4)cc3F)nc3cc(C)ccn23)C1` [Compound 165], the IC50 [1] was under 0.01 µM, the Folds of selectivity [2] was “A (key: A: folds of selectivity >1000; B: 200< folds of selectivity ≤1000; C: folds of selectivity ≤200)” and the IC50 [2] was over 60 µM. The “Number of coughs and cough latency (in words)” value (“Number … (in words)” for short) ([3]; 30 mg/kg) was “can effectively reduce the number of coughs and prolong the cough latency”, the inhibition in vivo at 30 mg/kg [3, 9] was 54.5% and the inhibition in vivo at 30 mg/kg [3, 10] was 53.6%. For the same compound, the CC50 at 48 h [4] was over 100 µM, the “Ratio of quinine/water intake (in words)” value ([5]; 20 mg/kg) was “almost unaffected” and the “Quinine/tap water* 100%” value [5, 11] was 3.90%.
For `CCC(=O)c1ccn(-c2cc(F)c(-c3nc4cc(C)ccn4c3C[C@H]3CN(C(=O)OC)CCO3)c(F)c2)n1` [Compound 164, methyl (S)-2-((2-(2,6-difluoro-4-(3-propionyl-1H-pyrazol-1-yl)phenyl)-7-methylimidazo[1,2-a]pyridin-3-yl)methyl) morpholine-4-carboxylate], the Folds of selectivity [2] was “A (key: A: folds of selectivity >1000; B: 200< folds of selectivity ≤1000; C: folds of selectivity ≤200)”, the IC50 [2] was over 60 µM and the inhibition in vivo at 30 mg/kg [3, 9] was 67.2%. The inhibition in vivo at 30 mg/kg [3, 10] was 65.2%, the CC50 at 48 h [4] was over 100 µM and the “Ratio of quinine/water intake (in words)” value ([5]; 20 mg/kg) was “almost unaffected”. For the same compound, the “Quinine/tap water* 100%” value [5, 11] was 6.69%.
For `CC(=O)N1CCO[C@@H](Cc2c(-c3c(F)cc(-n4ccnc4)cc3F)nc3cc(C)ccn23)C1` [Compound 162, (S)-1-(2-((2-(2,6-difluoro-4-(1H-imidazol-1-yl)phenyl)-7-methylimidazo[1,2-a]pyridin-3-yl)methyl)morpholino)ethan-1-one], the IC50 [1] was under 0.01 µM, the Folds of selectivity [2] was “A (key: A: folds of selectivity >1000; B: 200< folds of selectivity ≤1000; C: folds of selectivity ≤200)” and the IC50 [2] was over 60 µM. For the same compound, the “Number … (in words)” value ([3]; 30 mg/kg) was “can effectively reduce the number of coughs and prolong the cough latency”, the inhibition in vivo at 30 mg/kg [3, 9] was 46.1% and the inhibition in vivo at 30 mg/kg [3, 10] was 42.8%. For the same compound, the CC50 at 48 h [4] was over 100 µM, the “Ratio of quinine/water intake (in words)” value ([5]; 20 mg/kg) was “almost unaffected” and the “Quinine/tap water* 100%” value [5, 11] was 6.34%.
For `CNC(=O)c1cc(F)c(-c2oc3cc(C)ccc3c2C[C@H]2CN(C(=O)OC)CCO2)c(F)c1` [Compound 53, methyl (S)-2-((2-(2,6-difluoro-4-(methylcarbamoyl)phenyl)-6-methylbenzofuran-3-yl)methyl)morpholine-4-carboxylate], the IC50 [1] was under 0.01 µM, the “Number … (in words)” value ([3]; 30 mg/kg) was “can effectively reduce the number of coughs and prolong the cough latency” and the inhibition in vivo at 30 mg/kg [3, 9] was 51.7%. The inhibition in vivo at 30 mg/kg [3, 10] was 47.7%, the “Ratio of quinine/water intake (in words)” value ([5]; 20 mg/kg) was “almost unaffected” and the “Quinine/tap water* 100%” value [5, 11] was 7.65%.
For `COC(=O)N1CCO[C@@H](Cc2c(-c3c(F)cc(N)cc3F)nc3cc(Cl)ccn23)C1` [Compound 161, methyl (S)-2-((2-(4-amino-2,6-difluorophenyl)-7-chloroimidazo[1,2-a]pyridin-3-yl)methyl)morpholine-4-carboxylate], the IC50 [1] was 0.01 to 0.05 µM, the Folds of selectivity [2] was “A (key: A: folds of selectivity >1000; B: 200< folds of selectivity ≤1000; C: folds of selectivity ≤200)” and the IC50 [2] was over 60 µM. The “Number … (in words)” value ([3]; 30 mg/kg) was “can effectively reduce the number of coughs and prolong the cough latency”, the inhibition in vivo at 30 mg/kg [3, 9] was 66.2% and the inhibition in vivo at 30 mg/kg [3, 10] was 63.5%. The CC50 at 48 h [4] was over 100 µM, the “Ratio of quinine/water intake (in words)” value ([5]; 20 mg/kg) was “almost unaffected” and the “Quinine/tap water* 100%” value [5, 11] was 5.03%.
For `CNC(=O)c1cc(F)c(-c2nc3cc(C)ccn3c2C[C@H]2CN(C(=O)OC)CCO2)c(F)c1` [Positive compound 1, methyl (S)-2-((2-(2,6-difluoro-4-(4-methylcarbamoyl)phenyl)-7-methylimidazo[1,2-a]pyridin-3-yl)methyl)morpholine-4-carboxylate, reference compound], the Folds of selectivity [2] was over 5217, the “Cough inhibition rate Vs Baseline (%)” value ([3]; 30 mg/kg) was 47.0% and the “Cough inhibition rate Vs Vehicle (%)” value ([3]; 30 mg/kg) was 42.6%. The Mean cough latency ([3]; after administration, 30 mg/kg) was 226.75, the “Mean number of coughs” value ([3]; after administration, 30 mg/kg) was 9.88 and the Mean cough latency [3, 12] was 80.13. The “Mean number of coughs” value [3, 12] was 18.63, the CC50 at 48 h [4] was 128 µM and the half-life [6] was 24.2 h. For the same compound, the half-life [7] was 0.89 h and the half-life [8] was 1.87 h.
With `COC(=O)N1CCO[C@@H](Cc2c(-c3c(F)cc(-c4ncc[nH]4)cc3F)nc3cc(C)ccn23)C1` [Compound 7, methyl (S)-2-((2-(2,6-difluoro-4-(1H-imidazol-2-yl)phenyl)-7-methylimidazo[1,2-a]pyridin-3-yl)methyl)morpholine-4-carboxylate] the IC50 [1] was under 0.01 µM, the Folds of selectivity [2] was “A (key: A: folds of selectivity >1000; B: 200< folds of selectivity ≤1000; C: folds of selectivity ≤200)” and the IC50 [2] was over 60 µM. For the same compound, the “Number … (in words)” value ([3]; 30 mg/kg) was “can effectively reduce the number of coughs and prolong the cough latency”, the inhibition in vivo at 30 mg/kg [3, 9] was 42.6% and the inhibition in vivo at 30 mg/kg [3, 10] was 38.3%. The CC50 at 48 h [4] was 195 µM, the half-life [6] was 2.13 h and the half-life [7] was 0.326 h. The half-life [8] was 0.348 h, the “Ratio of quinine/water intake (in words)” value ([5]; 20 mg/kg) was “almost unaffected” and the “Quinine/tap water* 100%” value [5, 11] was 6.91%.
Work on `COc1cc(C(C)C)c(Oc2cnc(N)nc2N)cc1S(N)(=O)=O` [Positive compound 2, reference compound] yielded a CC50 at 48 h [4] of over 200 µM, a half-life [7] of 18.2 h and a half-life [8] of 14.9 h. For the same compound, the “Quinine/tap water* 100%” value [5, 11] was 59.41%, the “Quinine/tap water* 100%” value ([5]; Table 9, 10 mg/kg) was 18.62% and the “Quinine/tap water* 100%” value ([5]; Table 9, 20 mg/kg) was 34.99%.
With `COC(=O)N1CCO[C@@H](Cc2c(-c3c(F)cc(NC(C)=O)cc3F)nc3cc(C)ccn23)C1` [Compound 2, methyl (S)-2-((2-(2,6-difluoro-4-acetamidophenyl)-7-methylimidazo[1,2-a]pyridin-3-yl)-methyl)morpholine-4-carboxylate] the IC50 [1] was under 0.01 µM, the Folds of selectivity [2] was “A (key: A: folds of selectivity >1000; B: 200< folds of selectivity ≤1000; C: folds of selectivity ≤200)” and the IC50 [2] was over 60 µM. The “Number … (in words)” value ([3]; 30 mg/kg) was “can effectively reduce the number of coughs and prolong the cough latency”, the inhibition in vivo at 30 mg/kg [3, 9] was 38.7% and the inhibition in vivo at 30 mg/kg [3, 10] was 34.2%. For the same compound, the CC50 at 48 h [4] was 124 µM, the half-life [6] was 14.9 h and the half-life [7] was 0.872 h. The half-life [8] was 1.59 h, the “Ratio of quinine/water intake (in words)” value ([5]; 20 mg/kg) was “almost unaffected” and the “Quinine/tap water* 100%” value [5, 11] was 5.49%.
